The record followed here is patent publication US10968210B2, “Diamino-alkylamino-linked arylsulfonamide compounds with selective activity in voltage-gated sodium channels” (Merck Sharp & Dohme Corp., priority 2016, dated 2021).

What is called IC50 is the point on the concentration scale where inhibition reaches its midpoint.

Each structure is given as a SMILES string.

Assay [1] addresses T1, human Nav 1.5 channels stably expressed in HEK 293 cells (Homo sapiens, UniProt Q14524).
T1 construct: expressed in transfected cells; host or cells: HEK 293
Put plainly: IonWorks Quattro automated patch-clamp, inactivated state block of Nav 1.5 (reported as ratio to Nav 1.7 potency). The note with it: selectivity for Nav 1.7 over Nav 1.5, both by IonWorks. The assay is classed as cell-based. The method, then:
(§1) IonWorks® Experimental Procedure
(§2) Compounds were tested on human Nav 1.7 and Nav 1.5 channels stably expressed in HEK 293 cells. Sodium current measurements on IonWorks Quattro: An automated patch-clamp assay on the IonWorks Quattro platform (Molecular Devices) was used to measure state-dependent inhibition of human Nav 1.7 and Nav 1.5 channels. Cells were sealed on a planar substrate using the Population Patch Plate (PPC) technology. Electrical access was obtained using both nystatin and amphotericin. A double-pulse protocol was used for the determination of IC50 values for inactivated state block. Nav 1.7 and Nav 1.5 expressing cells were voltage clamped at −100 mV and −110 mV, respectively. A depolarizing prepulse to −10 mV (Nav 1.7) or −30 mV (Nav 1.5) for 1000 ms followed by a 10 ms repolarization to ˜100 mV (Nav1.7) or −110 mV (Nav 1.5) was given to generate fractional channel inactivation of ˜50%, followed by a 10 ms test pulse to −10 mV (Nav 1.7) or −30 mV (Nav 1.5) to measure peak current in control conditions and after compound addition. The following recording solutions were used (mM). External: 150 NaCl, 2 CaCl2, 5 KCl, 1 Mg Cl2, 10 HEPES, 12 Dextrose; internal: 120 CsF, 30 CsCl, 10 EGTA, 5 HEPES, 5 NaF, 2 MgCl2.
(§3) For all electrophysiology experiments, offline analysis was used to determine percent inhibition as a function of drug concentration. IC50 values were determined by fitting to the Hill equation.
(§4) The various compounds in Examples 1 through 4 and Tables 1 through 3 exemplified above were assayed for activity and selectivity using the foregoing IonWorks® technique. The results are reported in the following paragraph in a format expressing the identification of the compound with reference Example and compound (e.g. Ex 1-9 is Example 1, compound 9) followed by the observed potency in nM and the ratio of Nav1.7 potency: Nav1.5 potency as described here. Thus, Ex1-9: 1.7=65/ratio=641 identifies compound Example 1, compound 9 as having 65 nM potency for the Nav 1.7 sodium ion channel (as measured by IonWorks®) and a ratio of 641 Nav 1.7: Nav 1.5 potency, determined by IonWorks® measurement.
Background: Patch clamp records ionic current or voltage across a cell membrane.

The target in assay [2] is T2, human Nav 1.7 channels stably expressed in HEK 293 cells (Homo sapiens, UniProt Q15858).
T2 construct: expressed in transfected cells; host or cells: HEK 293
T2 sequence (Q15858 whole entry): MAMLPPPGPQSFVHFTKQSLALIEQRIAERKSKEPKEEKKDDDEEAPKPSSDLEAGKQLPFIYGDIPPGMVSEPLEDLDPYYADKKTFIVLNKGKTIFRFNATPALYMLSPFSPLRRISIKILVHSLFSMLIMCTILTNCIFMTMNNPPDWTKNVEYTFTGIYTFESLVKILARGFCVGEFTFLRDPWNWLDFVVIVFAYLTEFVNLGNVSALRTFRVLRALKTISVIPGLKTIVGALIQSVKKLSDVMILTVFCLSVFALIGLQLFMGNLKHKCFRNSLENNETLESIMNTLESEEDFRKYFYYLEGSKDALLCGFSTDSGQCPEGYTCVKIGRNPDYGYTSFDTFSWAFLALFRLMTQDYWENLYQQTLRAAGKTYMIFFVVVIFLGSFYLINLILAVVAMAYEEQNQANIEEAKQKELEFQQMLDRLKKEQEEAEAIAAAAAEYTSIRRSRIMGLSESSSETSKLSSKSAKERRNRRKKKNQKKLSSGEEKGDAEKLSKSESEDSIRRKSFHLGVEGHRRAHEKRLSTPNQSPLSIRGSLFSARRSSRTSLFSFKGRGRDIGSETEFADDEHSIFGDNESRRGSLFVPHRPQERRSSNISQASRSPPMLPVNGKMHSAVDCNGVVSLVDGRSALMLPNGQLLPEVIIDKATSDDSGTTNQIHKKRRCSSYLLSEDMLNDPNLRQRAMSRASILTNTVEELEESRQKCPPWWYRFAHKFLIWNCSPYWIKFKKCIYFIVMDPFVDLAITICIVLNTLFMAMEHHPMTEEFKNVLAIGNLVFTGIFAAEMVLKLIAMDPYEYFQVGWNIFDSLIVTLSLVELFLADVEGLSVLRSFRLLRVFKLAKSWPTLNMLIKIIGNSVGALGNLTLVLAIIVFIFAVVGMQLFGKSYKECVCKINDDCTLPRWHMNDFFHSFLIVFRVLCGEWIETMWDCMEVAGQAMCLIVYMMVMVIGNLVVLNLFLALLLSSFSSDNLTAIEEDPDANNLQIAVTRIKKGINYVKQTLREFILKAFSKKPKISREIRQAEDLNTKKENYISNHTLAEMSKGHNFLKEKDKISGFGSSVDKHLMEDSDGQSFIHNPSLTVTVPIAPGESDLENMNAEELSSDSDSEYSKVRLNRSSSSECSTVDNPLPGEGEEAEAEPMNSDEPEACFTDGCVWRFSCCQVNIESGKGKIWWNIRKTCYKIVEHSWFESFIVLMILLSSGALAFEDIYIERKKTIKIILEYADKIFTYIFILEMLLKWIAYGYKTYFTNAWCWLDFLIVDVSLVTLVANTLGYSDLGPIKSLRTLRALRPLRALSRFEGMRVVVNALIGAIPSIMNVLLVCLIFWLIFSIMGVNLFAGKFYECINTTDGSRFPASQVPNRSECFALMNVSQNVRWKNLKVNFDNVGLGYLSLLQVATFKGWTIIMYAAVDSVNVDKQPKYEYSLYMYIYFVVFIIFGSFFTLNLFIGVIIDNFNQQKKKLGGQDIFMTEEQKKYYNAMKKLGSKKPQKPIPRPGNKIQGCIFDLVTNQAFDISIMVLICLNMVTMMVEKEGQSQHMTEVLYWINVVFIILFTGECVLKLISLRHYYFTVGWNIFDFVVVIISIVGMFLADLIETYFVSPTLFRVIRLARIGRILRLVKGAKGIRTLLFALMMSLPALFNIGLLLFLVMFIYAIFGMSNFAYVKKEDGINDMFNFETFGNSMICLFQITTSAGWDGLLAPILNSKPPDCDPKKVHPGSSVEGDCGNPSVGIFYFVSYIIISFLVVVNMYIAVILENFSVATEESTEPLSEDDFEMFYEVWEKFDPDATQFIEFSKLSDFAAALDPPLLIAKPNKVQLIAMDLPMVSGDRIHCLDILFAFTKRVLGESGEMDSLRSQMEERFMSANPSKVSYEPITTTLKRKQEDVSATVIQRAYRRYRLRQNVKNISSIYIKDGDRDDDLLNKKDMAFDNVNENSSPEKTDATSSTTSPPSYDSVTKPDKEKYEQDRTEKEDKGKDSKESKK
As to the kind of experiment: IonWorks Quattro automated patch-clamp, inactivated state block of Nav 1.7. The assay is classed as cell-based. The note with it: double-pulse protocol, HEK 293 cells held at -100 mV, read-out: potency for the Nav 1.7 sodium ion channel (IC50, IonWorks). How it is done:
as §1, §2, §3, §4

T1 sequence (Q14524 whole entry): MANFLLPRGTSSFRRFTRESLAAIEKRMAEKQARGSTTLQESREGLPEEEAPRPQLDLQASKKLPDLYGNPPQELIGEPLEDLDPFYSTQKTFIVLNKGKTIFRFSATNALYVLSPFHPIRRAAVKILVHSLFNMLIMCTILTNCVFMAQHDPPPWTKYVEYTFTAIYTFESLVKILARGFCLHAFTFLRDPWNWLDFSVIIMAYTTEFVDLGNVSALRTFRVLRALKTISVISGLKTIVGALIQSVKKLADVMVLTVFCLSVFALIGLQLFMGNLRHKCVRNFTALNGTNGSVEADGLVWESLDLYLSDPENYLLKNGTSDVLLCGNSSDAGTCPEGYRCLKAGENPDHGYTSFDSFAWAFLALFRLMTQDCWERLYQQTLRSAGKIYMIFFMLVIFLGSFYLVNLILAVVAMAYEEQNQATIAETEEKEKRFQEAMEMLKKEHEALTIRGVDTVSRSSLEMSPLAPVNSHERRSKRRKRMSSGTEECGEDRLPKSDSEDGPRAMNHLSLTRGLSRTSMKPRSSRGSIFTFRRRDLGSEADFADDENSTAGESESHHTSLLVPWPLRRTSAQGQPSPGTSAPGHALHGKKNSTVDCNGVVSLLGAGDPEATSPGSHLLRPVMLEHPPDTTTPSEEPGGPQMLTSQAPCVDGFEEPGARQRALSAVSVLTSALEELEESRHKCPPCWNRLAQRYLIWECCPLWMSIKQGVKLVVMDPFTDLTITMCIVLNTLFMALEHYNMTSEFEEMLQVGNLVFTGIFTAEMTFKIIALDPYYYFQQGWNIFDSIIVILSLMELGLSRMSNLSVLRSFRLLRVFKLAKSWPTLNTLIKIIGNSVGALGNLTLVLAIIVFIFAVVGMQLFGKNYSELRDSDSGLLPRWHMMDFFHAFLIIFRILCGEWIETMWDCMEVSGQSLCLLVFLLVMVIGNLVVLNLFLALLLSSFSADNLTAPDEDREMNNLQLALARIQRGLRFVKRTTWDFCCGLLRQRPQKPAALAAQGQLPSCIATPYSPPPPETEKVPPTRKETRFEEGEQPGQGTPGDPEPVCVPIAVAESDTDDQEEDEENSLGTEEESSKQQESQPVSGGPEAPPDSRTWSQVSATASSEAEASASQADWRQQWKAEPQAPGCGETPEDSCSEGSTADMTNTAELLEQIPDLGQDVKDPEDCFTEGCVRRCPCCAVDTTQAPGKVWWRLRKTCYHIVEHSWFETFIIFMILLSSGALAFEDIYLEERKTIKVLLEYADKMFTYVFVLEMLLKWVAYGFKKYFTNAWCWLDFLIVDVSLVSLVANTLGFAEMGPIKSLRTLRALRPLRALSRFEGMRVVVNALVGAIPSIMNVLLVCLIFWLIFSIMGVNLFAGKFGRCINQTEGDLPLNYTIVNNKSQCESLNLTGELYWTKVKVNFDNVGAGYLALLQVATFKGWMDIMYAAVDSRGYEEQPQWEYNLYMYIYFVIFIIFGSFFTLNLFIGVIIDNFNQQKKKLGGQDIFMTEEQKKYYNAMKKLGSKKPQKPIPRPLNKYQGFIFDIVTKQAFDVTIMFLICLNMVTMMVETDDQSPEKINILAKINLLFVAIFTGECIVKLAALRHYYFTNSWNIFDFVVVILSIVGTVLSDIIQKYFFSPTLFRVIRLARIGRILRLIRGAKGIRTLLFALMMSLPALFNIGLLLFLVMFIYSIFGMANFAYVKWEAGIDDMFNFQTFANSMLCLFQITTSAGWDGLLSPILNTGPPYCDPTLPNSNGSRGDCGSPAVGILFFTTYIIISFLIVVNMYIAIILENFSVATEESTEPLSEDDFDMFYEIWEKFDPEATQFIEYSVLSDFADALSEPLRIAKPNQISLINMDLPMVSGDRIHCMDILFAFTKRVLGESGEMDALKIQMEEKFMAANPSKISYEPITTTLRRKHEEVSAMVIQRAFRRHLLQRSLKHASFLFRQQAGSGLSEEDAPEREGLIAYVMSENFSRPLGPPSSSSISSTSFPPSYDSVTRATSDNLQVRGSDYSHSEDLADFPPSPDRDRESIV

Take `COc1ccc(CC2(CNCCCCNc3cc(F)c(S(=O)(=O)Nc4nccs4)cc3Cl)CCCN2)cc1` (single isomer, unassigned) [Ex 1-16 Enantiomer A, (S or R)-5-chloro-2-fluoro-4-{[4-({[2-(4-methoxybenzyl)pyrrolidin-2-yl]methyl}amino)butyl]amino}-N-1,3-thiazol-2-ylbenzenesulfonamide]: the “ratio of Nav 1.7 : Nav 1.5 potency (IonWorks)” value (“ratio” below) in assay [1] is reported as 50. In assay [2], the IC50 was determined as 240 nM.

With `COc1ccc(CC2(CNCCCCNc3cc(F)c(S(=O)(=O)Nc4nccs4)cc3Cl)CCCN2)cc1` (single isomer, unassigned) [Ex 1-16 Enantiomer B, (R or S)-5-chloro-2-fluoro-4-{[4-({[2-(4-methoxybenzyl)pyrrolidin-2-yl]methyl}amino)butyl]amino}-N-1,3-thiazol-2-ylbenzenesulfonamide], the “ratio” value in assay [1] is 185. For the same compound, the concentration for half-maximal inhibition (IC50) in assay [2] came to 130 nM.

Regarding `O=S(=O)(Nc1nccs1)c1cc(Cl)c(NCCCCNCC2Cc3ccccc3CN2)cc1F` (single isomer, unassigned) [Ex 1-18, (R or S)-5-chloro-2-fluoro-4-({4-[(1,2,3,4-tetrahydroisoquinolin-3-ylmethyl)amino]butyl}amino)-N-1,3-thiazol-2-ylbenzenesulfonamide], the “ratio” value in assay [1] was > 4177. Also, in assay [2], the IC50 amounted to 7.9 nM.

Consider `O=S(=O)(Nc1nccs1)c1cc(Cl)c(NCC2CCCC(NCC3CCCN3)C2)cc1F` (single isomer, unassigned) [Ex 6-7 Enantiomer B, 5-chloro-2-fluoro-4-((((1S,3R or 1R,3S)-3-(((S)-pyrrolidin-2-ylmethyl)amino)cyclohexyl)methyl)amino)-N-(thiazol-2-yl)benzenesulfonamide], for which the “ratio” value in assay [1] was > 940. In addition, the IC50 in assay [2] stood at 35 nM.

Turning to `NCC1CCN1CCCCNc1cc(F)c(S(=O)(=O)Nc2nccs2)cc1Cl` (single isomer, unassigned) [Ex 16-53, (S or R)-4-({4-[2-(aminomethyl)-azetidin-1-yl]butyl}amino)-5-chloro-2-fluoro-N-1,3-thiazol-2-ylbenzene-sulfonamide], in assay [1], the “ratio” value is listed as > 786. Moreover, in assay [2], the IC50 worked out at 42 nM.

For the compound `O=S(=O)(Nc1nccs1)c1cc(Cl)c(NCCCCNCCNCc2ccccc2)cc1F` [Ex 1-3, 4-[(4-{[2-(benzylamino)ethyl]amino}butyl)amino]-5-chloro-2-fluoro-N-1,3-thiazol-2-ylbenzenesulfonamide], the “ratio” value in assay [1] is listed as > 4700. Further, the IC50 in assay [2] came to 7 nM.

With `O=S(=O)(Nc1nccs1)c1cc(Cl)c(NCCCCN2CCC3(CCCN3)CC2)cc1F` [Ex 1-14, 5-chloro-4-{[4-(1,8-diazaspiro[4.5]dec-8-yl)butyl]amino}-2-fluoro-N-1,3-thiazol-2-ylbenzenesulfonamide], the “ratio” value in assay [1] is listed as > 870. The 50% inhibitory concentration (IC50) in assay [2] is 38 nM.

`O=S(=O)(Nc1nccs1)c1cc(Cl)c(NCCCCN[C@H]2[C@@H]3CC[C@H]2NC3)cc1F` [Ex 1-17, 4-({4-[(1R,4R,7S)-2-azabicyclo[2.2.1]hept-7-ylamino]butyl}amino)-5-chloro-2-fluoro-N-1,3-thiazol-2-ylbenzenesulfonamide]: the “ratio” value in assay [1] was > 550. The IC50 in assay [2] was found to be 60 nM.

For the compound `N[C@H]1[C@@H]2CC[C@H]1N(CCCCNc1cc(F)c(S(=O)(=O)Nc3nccs3)cc1Cl)C2` [Ex 1-20, 4-({4-[(1R,4R,7S)-7-amino-2-azabicyclo[2.2.1]hept-2-yl]butyl}amino)-5-chloro-2-fluoro-N-1,3-thiazol-2-ylbenzenesulfonamide], the “ratio” value in assay [1] was > 590. The IC50 in assay [2] came to 56 nM.

As to `O=S(=O)(Nc1nccs1)c1cc(Cl)c(NCCCCN2C[C@H]3CNC[C@H]3C2)cc1F` [Ex 1-22, 5-chloro-2-fluoro-4-({4-[(3aR,6aS)-hexahydropyrrolo[3,4-c]pyrrol-2(1H)-yl]butyl}amino)-N-1,3-thiazol-2-ylbenzenesulfonamide], the “ratio” value in assay [1] was > 1270. Further, the 50% inhibitory concentration (IC50) in assay [2] worked out at 26 nM.

For `O=S(=O)(Nc1nccs1)c1cc(Cl)c(NCCCCN2C[C@H]3CNCC[C@H]3C2)cc1F` [Ex 1-23, 5-chloro-2-fluoro-4-({4-[(3aR,7aR)-octahydro-2H-pyrrolo[3,4-c]pyridin-2-yl]butyl}amino)-N-1,3-thiazol-2-ylbenzenesulfonamide], the “ratio” value in assay [1] is given as > 770. Moreover, the IC50 in assay [2] is 43 nM.

On to `O=S(=O)(Nc1nccs1)c1cc(Cl)c(NCC(F)(F)CCNC[C@@H]2CCCN2)cc1F` [Ex 11-11, 5-chloro-4-[(2,2-difluoro-4-{[(2S)-pyrrolidin-2-ylmethyl]amino}butyl)amino]-2-fluoro-N-1,3-thiazol-2-ylbenzenesulfonamide], for which the IC50 in assay [2] is 49 nM.

Consider `O=S(=O)(Nc1nccs1)c1cc(Cl)c(NCC(F)(F)CCNC[C@H]2CCCN2)cc1F` [Ex 11-12, 5-chloro-4-[(2,2-difluoro-4-{[(2R)-pyrrolidin-2-ylmethyl]amino}butyl)amino]-2-fluoro-N-1,3-thiazol-2-ylbenzenesulfonamide], for which, in assay [2], the IC50 was 49 nM.

`NC[C@H]1CCN1CCCCNc1cc(F)c(S(=O)(=O)Nc2ncc(F)s2)cc1Cl` [Ex 16-10, 4-({4-[(2R)-2-(aminomethyl)azetidin-1-yl]-butyl}amino)-5-chloro-2-fluoro-N-(5-fluoro-1,3-thiazol-2-yl)-benzene-sulfonamide]: in assay [2], the IC50 amounted to 19 nM.

In the case of `O=S(=O)(Nc1ncns1)c1cc(Cl)c(NCCCCN2C[C@H]3CCCN[C@H]3C2)cc1F` [Ex 16-31, 5-chloro-2-fluoro-4-({4-[(4aR,7aR)-octahydro-6H-pyrrolo[3,4-b]pyridin-6-yl]-butyl}amino)-N-1,2,4-thiadiazol-5-ylbenzene-sulfonamide], the 50% inhibitory concentration (IC50) in assay [2] was 12 nM.

As for `NCC1CN(CCCCNc2cc(F)c(S(=O)(=O)Nc3ncns3)cc2Br)C1` [Ex 16-37, 4-((4-(3-(aminomethyl)azetidin-1-yl)butyl)amino)-5-bromo-2-fluoro-N-(1,2,4-thiadiazol-5-yl)benzenesulfonamide], the concentration for half-maximal inhibition (IC50) in assay [2] turned out to be 10 nM.

With `NC1CN(CCCCNc2cc(F)c(S(=O)(=O)Nc3ncns3)cc2Cl)C1` [Ex 16-38, 4-{[4-(3-aminoazetidin-1-yl)-butyl]amino}-5-chloro-2-fluoro-N-1,2,4-thiadiazol-5-yl-benzenesulfonamide], the IC50 in assay [2] came out at 30 nM.

With `N#Cc1cc(S(=O)(=O)Nc2ncc(F)s2)c(F)cc1NCCCCN[C@@H]1CCNC1` [Ex 16-40, 5-cyano-2-fluoro-N-(5-fluoro-1,3-thiazol-2-yl)-4-({4-[(3R)-pyrrolidin-3-yl-amino]butyl}amino)benzene-sulfonamide], the IC50 in assay [2] is 29 nM.

Regarding `O=S(=O)(Nc1nccs1)c1cc(Cl)c(NCCCCNC2C[C@@H]3CN[C@H]2C3)cc1F` (stereo partly drawn) [Ex 16-42, 4-({4-[(1S,4R)-2-azabicyclo[2.2.1]hept-6-yl-amino]butyl}amino)-5-chloro-2-fluoro-N-1,3-thiazol-2-ylbenzene-sulfonamide], the IC50 in assay [2] was found to be 44 nM.

On to `Cc1cc(S(=O)(=O)Nc2ncc(F)s2)c(F)cc1NCCCCN[C@@H]1CCNC1` [Ex 16-43, 2-fluoro-N-(5-fluoro-1,3-thiazol-2-yl)-5-methyl-4-({4-[(3R)-pyrrolidin-3-ylamino]-butyl}amino)benzene-sulfonamide], for which the IC50 in assay [2] was found to be 11 nM.

Regarding `O=S(=O)(Nc1ncc(F)s1)c1cc(Br)c(NCCCCN2C[C@H]3CCCN[C@H]3C2)cc1F` [Ex 16-44, 5-bromo-2-fluoro-N-(5-fluoro-1,3-thiazol-2-yl)-4-({4-[(4aR,7aR)-octahydro-6H-pyrrolo[3,4-b]pyridin-6-yl]butyl}amino)benzene-sulfonamide], the IC50 in assay [2] came out at 12 nM.

For `N#Cc1cc(S(=O)(=O)Nc2ncns2)c(F)cc1NCCCCN[C@@H]1CCNC1` [Ex 16-45, 5-cyano-2-fluoro-4-({4-[(3R)-pyrrolidin-3-yl-amino]butyl}amino)-N-1,2,4-thiadiazol-5-ylbenzene-sulfonamide], in assay [2], the IC50 stood at 16 nM.

`CN[C@@H]1CCN(CCCCNc2cc(F)c(S(=O)(=O)Nc3ncc(F)s3)cc2Cl)C1` [Ex 16-54, 5-chloro-2-fluoro-N-(5-fluoro-1,3-thiazol-2-yl)-4-({4-[(3R)-3-(methylamino)-pyrrolidin-1-yl]butyl}-amino)-benzenesulfonamide]: in assay [2], the IC50 came out at 13 nM.
